“Also recorded” adds a separate entry of the source.
Columns and labels:
human CD4^+ T cells = assay: proliferation of T cells in response to TCR stimulation in vitro; format: cell-based; conditions: listed as KD025
STAT3 = STAT3 phosphorylation in T cells; format: cell-based, human
[1] = test system: CD4^+ T cells from RA patients; assay: cytokine secretion ex vivo by CD3/CD28 stimulated CD4+ T cells from RA patients; format: cell-based, human; conditions: listed as KD025
[2] = test system: TGF-β-induced STAT3, MLC and SMAD2/3 phosphorylation; assay: TGF-β-induced phosphorylation of STAT3, MLC and SMAD2/3 in Tregs; format: cell-based
PBMCs = assay: ex vivo anti-CD3/CD28 stimulated cytokine production in PBMCs isolated from treated patients; design: species or system human; conditions: 120 mg/day, days 1 and 8-14

Q: For `CC(C)NC(=O)COc1cccc(-c2nc(Nc3ccc4[nH]ncc4c3)c3ccccc3n2)c1` [SLx-2119], which “proliferation in response to TCR stimulation” value (human CD4^+ T cells) is on record?
A: inhibits; also recorded: down-regulated their ability to proliferate

Q: What about the STAT3 phosphorylation (STAT3; Th17-skewing conditions 5 days, then treated 3 hours) of the same compound?
A: STAT3 phosphorylation was reduced

Q: What about the “phosphorylation of STAT3” value (STAT3; pre-treatment, then anti-CD3/CD28 stimulation) of the same compound?
A: reduced phosphorylation of STAT3

Q: What about the “phosphorylation of STAT3, IFR4 and RORγT” value (STAT3; separate experiment (FIG. 9C)) of the same compound?
A: reduced phosphorylation

Q: What about the “phosphorylation of STAT3” value (STAT3; two different experimental designs, listed as KD025) of the same compound?
A: inhibits STAT3 phosphorylation; also recorded: significantly down-regulates

Q: And the “secretion of IFN-γ” value [1]?
A: inhibits; also recorded: significantly down-regulated

Q: What about the “secretion of IL-17” value [1] of the same compound?
A: inhibits; also recorded: significantly down-regulated

Q: And the “secretion of IL-21” value [1]?
A: inhibits; also recorded: significantly down-regulated

Q: And the “TGF-β-induced STAT3 and MLC phosphorylation” value [2]?
A: down-regulates

Q: And the “induction of IL-17 secretion in PBMCs” value (PBMCs)?
A: significantly inhibited in PBMCs isolated from four of five patients

Q: What about the “induction of IL-21 secretion in PBMCs” value (PBMCs) of the same compound?
A: significantly inhibited in PBMCs from all five patients
